Reference: US20190358286A1, “METHODS FOR THE PREVENTION OR TREATMENT OF LEFT VENTRICLE REMODELING” (Stealth BioTherapeutics Corp., priority 2013, published 2019)
Non-standard residues stand in square brackets, D forms with d. Residues, ends and D or L forms follow the SMILES beside them. Dmt = Cc1cc(O)cc(C)c1C[C@H](N)C(=O)O

Tests used:
[1] = system: several mammalian cell types; details: energy-independent manner; cited from earlier work
[2] = system: rats with permanent coronary artery occlusion; experiment: Deaths during 6 weeks treatment; format: in vivo, rat; details: 74 rats randomized to peptide or water
Protocol: Rats were anesthetized, ventilated, and a thoracotomy performed in the left 4th intercostal space. Temperature was maintained at 36° C. by placing the rats on a heating pad during the procedure. The pericardium was excised and the proximal left coronary artery isolated and permanently occluded with a suture. Coronary artery occlusion was confirmed by cyanosis and akinesis of the anterior wall of the ventricle. The chest was closed, air evacuated, and the rats allowed to recover. Analgesia was administered per the veterinarian. An echocardiogram was obtained at approximately 15 minutes post coronary artery occlusion. At 2 hours rats were randomized to receive chronic daily D-Arg-2′,6′-Dmt-Lys-Phe-NH2 (delivered subcutaneously by an Alzet Osmotic Pump—3 mg/kg/day) or water. […] Heart rate and blood pressure were measured. A Millar catheter was inserted into the left ventricle and LV systolic pressure, LV end diastolic pressure, +dP/dt, and −dP/dt were measured. […] Postmortem left ventricle volume was measured by filling the LV cavity with fluid and measuring the total fluid. […] Quantitative histologic analysis included: total circumference, scar circumference, non-infarcted wall circumference, total LV area, total LV cavity area, LV wall thickness (at several points), non-infarcted wall thickness; myocardial infarct expansion index. […]

Compound | penetration of the plasma membrane [1] | deaths during the 6 weeks treatment [2]
2′,6′-Dmt-D-Arg-Phe-Lys-NH2 | readily penetrates | 
Cc1cc(O)cc(C)c1C[C@H](NC(=O)[C@H](N)CCCNC(=N)N)C(=O)N[C@@H](CCCCN)C(=O)N[C@@H](Cc1ccccc1)C(N)=O [D-Arg-2′,6′-Dmt-Lys-Phe-NH2] (H-[dR][Dmt]KF-NH2) |  | no rats died
